Test results: patent US20250320206A1, “STAT6 DEGRADERS” (Gilead Sciences, Inc., priority 2024, published 2025)

Columns and labels:
STAT6 = target: T1, STAT6 (Homo sapiens, UniProt P42226); assay: Stat6 Degrader Assay (HiBiT based, HeLa LgBiT clone 4.14); assay type: cell-based; details: HeLa LgBiT clone 4.14 HiBiT-STAT6, 4-24 h incubation; values given for compounds with >80% Emax; geometric mean; read-out: STAT6 degradation DC50
T1 construct: These cells express endogenous STAT6; host or cells: HeLa LgBiT clone 4.14
T1 sequence (P42226 1-847): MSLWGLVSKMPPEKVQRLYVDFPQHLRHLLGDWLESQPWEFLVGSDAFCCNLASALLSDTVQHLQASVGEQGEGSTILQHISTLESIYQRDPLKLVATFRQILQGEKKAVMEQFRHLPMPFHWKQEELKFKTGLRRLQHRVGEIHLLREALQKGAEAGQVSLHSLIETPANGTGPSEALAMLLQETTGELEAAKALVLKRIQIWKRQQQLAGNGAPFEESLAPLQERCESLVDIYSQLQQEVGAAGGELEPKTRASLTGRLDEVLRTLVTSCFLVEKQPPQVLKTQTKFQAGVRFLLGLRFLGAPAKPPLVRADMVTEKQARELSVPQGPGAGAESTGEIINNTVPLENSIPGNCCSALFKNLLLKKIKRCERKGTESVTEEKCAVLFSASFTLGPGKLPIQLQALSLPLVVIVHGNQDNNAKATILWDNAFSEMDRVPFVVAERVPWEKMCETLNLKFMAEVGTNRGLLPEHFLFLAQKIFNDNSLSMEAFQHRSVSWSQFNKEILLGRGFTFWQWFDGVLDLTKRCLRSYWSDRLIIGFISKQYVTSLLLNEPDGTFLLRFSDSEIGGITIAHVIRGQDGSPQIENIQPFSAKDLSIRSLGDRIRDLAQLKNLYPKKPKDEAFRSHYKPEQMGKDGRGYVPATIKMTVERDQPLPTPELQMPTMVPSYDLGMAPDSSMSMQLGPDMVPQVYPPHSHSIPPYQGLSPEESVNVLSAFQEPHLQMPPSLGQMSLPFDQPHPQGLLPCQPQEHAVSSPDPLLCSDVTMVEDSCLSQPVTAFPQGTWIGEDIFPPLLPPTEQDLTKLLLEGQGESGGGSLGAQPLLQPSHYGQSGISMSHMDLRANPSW
In short: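 Luminescence from HiBiT-STAT6 complementing stably expressed LgBiT in HeLa clone 4.14 reports remaining STAT6 protein. Cells (5000/well) exposed to compound for 4-24 h at 37° C; read 0.5 h after Nano-Glo addition. 100% degradation window set with 50 μM terfenadine; percent degradation plotted against concentration.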

[1] = test system: Eotaxin-3 release in human whole blood stimulated with IL-4; assay: Human Whole Blood Eotaxin-3 Assay (IL-4 stimulated eotaxin-3 release); assay type: cell-based; details: IL-4 stimulation, 48 h, values given for compounds with >80% Emax, geometric mean
In short: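 Eotaxin-3 (CCL26) release measured by MSD kit in plasma supernatant after 48 h IL-4 stimulation ([…]) of human whole blood. Compounds added in triplicate 4-fold dilutions 2 h before stimulation; 0.5% DMSO final, 37° C, 5% CO2.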

Row | Structure (SMILES) | DC50 (STAT6) | EC50 [1]
1 | CNc1ccn(-c2ccnc3c2cc(CN2CC=C(c4c(F)cc(C(=O)N5CCC(CN6CCN(Cc7ccc8c(c7)n(C7CC7)c(=O)n8C7CCC(=O)NC7=O)C[C@@H]6C)CC5)cc4F)CC2)n3C)c(=O)c1 (stereo partly drawn) [Example 3u71, 3-(3-cyclopropyl-5-(((S)-4-((1-(3,5-difluoro-4-(1-((1-methyl-4-(4-(methylamino)-2-oxopyridin-1 (2H)-yl)-1H-pyrrolo[2,3-b]pyridin-2-yl)methyl)-1,2,3,6-tetrahydropyridin-4-yl)benzoyl)piperidin-4-yl)methyl)-3-methylpiperazin-1-yl)methyl)-2-oxo-2,3-dihydro-1H-benzo[d]imidazol-1-yl)piperidine-2,6-dione] | 5.3 nM | 1.8 nM
2 | CNc1cc(=O)n(-c2ccnc3c2cc([C@H](C)N2CC=C(c4c(C)cc(C(=O)N5CCC(CN6CCN(c7ccc8c(c7)C7(CC7)C(=O)N8C7CCC(=O)NC7=O)C[C@H]6C)CC5)cc4F)CC2)n3C)cc1F (stereo partly drawn) [Example 3u295, 3-(5′-((R)-4-((1-(3-fluoro-4-(1-((S)-1-(4-(5-fluoro-4-(methylamino)-2-oxopyridin-1 (2H)-yl)-1-methyl-1H-pyrrolo[2,3-b]pyridin-2-yl)ethyl)-1,2,3,6-tetrahydropyridin-4-yl)-5-methylbenzoyl)piperidin-4-yl)methyl)-3-methylpiperazin-1-yl)-2′-oxospiro[cyclopropane-1,3′-indolin]-1′-yl)piperidine-2,6-dione] | 4.5 nM | 18.9 nM
3 | CNc1ccn(-c2ccnc3c2cc([C@H](C)N2CC=C(c4c(C)cc(C(=O)N5CCC(CN6CCN(Cc7ccc8c(c7)C7(CC7)C(=O)N8[C@H]7CCC(=O)NC7=O)C[C@@H]6C)CC5)cc4F)CC2)n3C)c(=O)c1 (single isomer, unassigned) [Example 3u191] | 0.4 nM | 0.5 nM
4 | CNc1ccn(-c2ccnc3c2cc([C@H](C)N2CCC(c4c(C)cc(C(=O)N5CCC(CN6CCN(Cc7ccc8c(c7)n(C7CC7)c(=O)n8[C@@H]7CCC(=O)NC7=O)C[C@@H]6C)CC5)cc4F)CC2)n3C)c(=O)c1 (single isomer, unassigned) [Example 3u199] | 1.1 nM | 2.7 nM
5 | CNc1cc(=O)n(-c2ccnc3c2cc([C@H](C)N2CC=C(c4c(C)cc(C(=O)N5CCC(CN6CCN(c7ccc8c(c7)C7(CC7)C(=O)N8C7CCC(=O)NC7=O)CC6)CC5)cc4F)CC2)n3C)cc1F (stereo partly drawn) [Example 3u302, 3-(5′-(4-((1-(3-fluoro-4-(1-((S)-1-(4-(5-fluoro-4-(methylamino)-2-oxopyridin-1 (2H)-yl)-1-methyl-1H-pyrrolo[2,3-b]pyridin-2-yl)ethyl)-1,2,3,6-tetrahydropyridin-4-yl)-5-methylbenzoyl)piperidin-4-yl)methyl)piperazin-1-yl)-2′-oxospiro[cyclopropane-1,3′-indolin]-1′-yl)piperidine-2,6-dione] | 4.9 nM | 29.2 nM
6 | CNc1ccn(-c2ccnc3c2cc(CN2CCC(c4c(F)cc(C(=O)N5CCC(CN6CCN(Cc7ccc8c(c7)C7(CC7)C(=O)N8C7CCC(=O)NC7=O)C[C@@H]6C)CC5)cc4F)CC2)n3C)c(=O)c1 (stereo partly drawn) [Example 3u222, 3-(5′-(((S)-4-((1-(3,5-difluoro-4-(1-((1-methyl-4-(4-(methylamino)-2-oxopyridin-1 (2H)-yl)-1H-pyrrolo[2,3-b]pyridin-2-yl)methyl)piperidin-4-yl)benzoyl)piperidin-4-yl)methyl)-3-methylpiperazin-1-yl)methyl)-2′-oxospiro[cyclopropane-1,3′-indolin]-1′-yl)piperidine-2,6-dione] | 1.5 nM | 1.1 nM
7 | CNc1cc(=O)n(-c2ccnc3c2cc([C@H](C)N2CC=C(c4c(C)cc(C(=O)N5CCC(CN6CCN(Cc7ccc8c(c7)n(C)c(=O)n8[C@H]7CCC(=O)NC7=O)CC6)CC5)cc4F)CC2)n3C)cc1F (single isomer, unassigned) [Example 3u14] | 0.6 nM | 1.2 nM
8 | CNc1cc(=O)n(-c2ccnc3c2cc([C@H](C)N2CC=C(c4c(C)cc(C(=O)N5CCC(CN6CCN(Cc7ccc8c(c7)n(C)c(=O)n8[C@@H]7CCC(=O)NC7=O)C[C@@H]6C)CC5)cc4F)CC2)n3C)cc1F (single isomer, unassigned) [Example 3u92] | 0.4 nM | 1.8 nM
9 | C[C@H]1CN(Cc2ccc3c(c2)C(C)(C)C(=O)N3C2CCC(=O)NC2=O)CCN1CC1CCN(C(=O)c2cc(F)c(C3CCN(Cc4cc5c(-n6ccc7c(c6=O)CCN7)ccnc5n4C)CC3)c(F)c2)CC1 (stereo partly drawn) [Example 3u86, 3-(5-(((S)-4-((1-(3,5-difluoro-4-(1-((1-methyl-4-(4-oxo-1,2,3,4-tetrahydro-5H-pyrrolo[3,2-c]pyridin-5-yl)-1H-pyrrolo[2,3-b]pyridin-2-yl)methyl)piperidin-4-yl)benzoyl)piperidin-4-yl)methyl)-3-methylpiperazin-1-yl)methyl)-3,3-dimethyl-2-oxoindolin-1-yl)piperidine-2,6-dione] | 3.4 nM | 5.1 nM
10 | CNc1cc(=O)n(-c2ccnc3c2cc([C@H](C)N2CC=C(c4c(C)cc(C(=O)N5CCC(CN6CCN(Cc7ccc8c(c7)n(C7CC7)c(=O)n8[C@H]7CCC(=O)NC7=O)C[C@@H]6C)CC5)cc4F)CC2)n3C)cc1F (single isomer, unassigned) [Example 3u119] | 2.1 nM | 2.2 nM
11 | CNc1ccn(-c2ccnc3c2cc([C@H](C)N2CC=C(c4c(C)cc(C(=O)N5CCC(CN6CCN(Cc7cc8c(cc7F)N([C@H]7CCC(=O)NC7=O)C(=O)C87CC7)C[C@@H]6C)CC5)cc4F)CC2)n3C)c(=O)c1 (single isomer, unassigned) [Example 3u194] | 1.7 nM | 0.9 nM
12 | CNc1ccn(-c2ccnc3c2cc(CN2CCC(c4c(F)cc(C(=O)N5CCC(CN6CCN(Cc7ccc8c(c7)C(C)(C)C(=O)N8C7CCC(=O)NC7=O)C[C@@H]6C)CC5)cc4F)CC2)n3C)c(=O)c1 (stereo partly drawn) [Example 3u204, 3-(5-(((S)-4-((1-(3,5-difluoro-4-(1-((1-methyl-4-(4-(methylamino)-2-oxopyridin-1 (2H)-yl)-1H-pyrrolo[2,3-b]pyridin-2-yl)methyl)piperidin-4-yl)benzoyl)piperidin-4-yl)methyl)-3-methyl-piperazin-1-yl)methyl)-3,3-dimethyl-2-oxoindolin-1-yl)piperidine-2,6-dione] | 2.5 nM | 4.6 nM
13 | CNc1ccn(-c2ccnc3c2cc(CN2CC=C(c4c(F)cc(C(=O)N5CCC(CN6CCN(Cc7ccc8c(c7)n(C)c(=O)n8C7CCC(=O)NC7=O)C[C@@H]6C)CC5)cc4F)CC2)n3C)c(=O)c1 (stereo partly drawn) [Example 3u1, 3-(5-(((S)-4-((1-(3,5-difluoro-4-(1-((1-methyl-4-(4-(methylamino)-2-oxopyridin-1 (2H)-yl)-1H-pyrrolo[2,3-b]pyridin-2-yl)methyl)-1,2,3,6-tetrahydropyridin-4-yl)benzoyl)piperidin-4-yl)methyl)-3-methylpiperazin-1-yl)methyl)-3-methyl-2-oxo-2,3-dihydro-1H-benzo[d]imidazol-1-yl)piperidine-2,6-dione] | 0.9 nM | 1 nM
14 | CNc1ccn(-c2ccnc3c2cc(CN2CCC(c4c(F)cc(C(=O)N5CCC(CN6CCN(Cc7ccc8c(c7)n(C)c(=O)n8[C@@H]7CCC(=O)NC7=O)CC6)CC5)cc4F)CC2)n3C)c(=O)c1 (single isomer, unassigned) [Example 3u31] | 2.4 nM | 2 nM
15 | CNc1ccn(-c2ccnc3c2cc([C@H](C)N2CC=C(c4c(F)cc(C(=O)N5CCC(CN6CCN(Cc7ccc8c(c7)C(C)(C)C(=O)N8[C@H]7CCC(=O)NC7=O)C[C@@H]6C)CC5)cc4F)CC2)n3C)c(=O)c1 (single isomer, unassigned) [Example 3u202] | 1.9 nM | 2.6 nM
16 | CNc1ccn(-c2ccnc3c2cc([C@H](C)N2CC=C(c4c(C)cc(C(=O)N5CCC(CN6CCN(c7cc8c(cc7F)n(C7CCC(=O)NC7=O)c(=O)n8C)CC6)CC5)cc4F)CC2)n3C)c(=O)n1 (stereo partly drawn) [Example 3u256, 3-(6-fluoro-5-(4-((1-(3-fluoro-5-methyl-4-(1-((S)-1-(1-methyl-4-(4-(methylamino)-2-oxopyrimidin-1 (2H)-yl)-1H-pyrrolo[2,3-b]pyridin-2-yl)ethyl)-1,2,3,6-tetrahydropyridin-4-yl)benzoyl)piperidin-4-yl)methyl)piperazin-1-yl)-3-methyl-2-oxo-2,3-dihydro-1H-benzo[d]imidazol-1-yl)piperidine-2,6-dione] | 2.5 nM | 0.8 nM
